The source of these data is patent US20100317607A1, “USE OF COMPOUNDS FOR PREPARING ANTI-TUBERCULOSIS AGENTS” (INFECTIOUS DISEASE RESEARCH INSTITUTE, priority 2007, published 2010).

Converted amounts (≈) assume the structure as drawn.

For this experiment, the system named is H37Rv strain of M. tuberculosis. Kind of experiment: Alamar Blue Susceptibility Test (MABA). In kind it is cell-based. To be noted: H37Rv strain of M. tuberculosis, Alamar Blue; for MIC: Mycobacterium tuberculosis, read-out: MABA (TB growth inhibition, colourimetric assay). For orientation: Alamar Blue is a resazurin reagent that responds to reducing activity.

As to `Nc1nc(N)c2ccccc2n1` [Comparative compound 2, Quinazoline-2,4-diamine, reference compound], the “MABA (TB growth inhibition, colourimetric assay)” value is recorded as “−”.
Consider `O=[N+]([O-])c1ccc(NCCNc2nc(N3CCOCC3)nc3ccccc23)cc1` [Compound 7, N^1-(2-Morpholinoquinazolin-4-yl)-N^2-(4-nitrophenyl)ethane-1,2-diamine], for which the MIC lay within 50 to 128 µM (≈ 19.7 to 50.5 µg/mL).
Same read-out and setting: next, `CN1CCN(c2nc(NCCNc3ccc([N+](=O)[O-])cc3)c3ccccc3n2)CC1` [Compound 11, N^1-(2-(4-Methylpiperazin-1-yl)quinazolin-4-yl)-N^2-(4-nitrophenyl)ethane-1,2-diamine]: 50 to 128 µM (≈ 20.4 to 52.2 µg/mL).
As to `c1ccc(CNc2nc(Nc3ccccc3)nc3ccccc23)cc1` [Compound 23, N^4-Benzyl-N^2-phenylquinazoline-2,4-diamine], the MIC was 10 to 50 µM (≈ 3.26 to 16.3 µg/mL).
Consider `CCN(CC)c1nc(NCc2ccccc2)c2ccccc2n1` [Compound 25, N^4-Benzyl-N^2,N^2-diethylquinazoline-2,4-diamine], for which the MIC is 10 to 50 µM (≈ 3.06 to 15.3 µg/mL).
The same measure, in the same setting: next, `CCS(=O)(=O)N1CCN(c2nc(NCc3ccccc3)c3ccccc3n2)CC1` [Compound 26, N-Benzyl-2-(4-(ethylsulfonyl)piperazin-1-yl)quinazolin-4-amine]: 50 to 128 µM (≈ 20.6 to 52.7 µg/mL); `CCOC(=O)CN1CCN(c2nc(NCc3ccccc3)c3ccccc3n2)CC1` [Compound 27, Ethyl 2-(4-(4-(benzylamino)quinazolin-2-yl)piperazin-1-yl)acetate]: 50 to 128 µM (≈ 20.3 to 51.9 µg/mL); `Cc1ccc(CNc2nc(NCc3ccccc3)c3ccccc3n2)cc1` [Compound 28, N^4-Benzyl-N^2-(4-methylbenzyl)quinazoline-2,4-diamine]: 10 to 50 µM (≈ 3.54 to 17.7 µg/mL).
Same read-out and setting: next, `CN(Cc1ccccc1)c1nc(NCc2ccccc2)c2ccccc2n1` [Compound 29, N^2,N^4-Dibenzyl-N^2-methylquinazoline-2,4-diamine]: 10 to 50 µM (≈ 3.54 to 17.7 µg/mL); `CC(C)(C)OC(=O)N1CCN(c2nc(NCc3ccccc3)c3ccccc3n2)CC1` [Compound 31, tert-Butyl 4-(4-(benzylamino)quinazolin-2-yl)piperazine-1-carboxylate]: 10 to 50 µM (≈ 4.2 to 21 µg/mL); `C[C@H](Nc1nc(N2CCCCC2)nc2ccccc12)c1ccccc1` [Compound 32, (S)—N-(1-Phenylethyl)-2-(piperidin-1-yl)quinazolin-4-amine]: 10 to 50 µM (≈ 3.32 to 16.6 µg/mL).
On the same count and under the same terms, the same measure for `c1ccc(CNc2nc(N3CCCCC3)nc3ccccc23)nc1` [Compound 46, 2-(Piperidin-1-yl)-N-(pyridin-2-ylmethyl)quinazolin-4-amine]: 50 to 128 µM (≈ 16 to 40.9 µg/mL).
Take `c1cncc(CNc2nc(N3CCCCC3)nc3ccccc23)c1` [Compound 47, 2-(Piperidin-1-yl)-N-(pyridin-3-ylmethyl)quinazolin-4-amine]: the MIC lay in the range of 50 to 128 µM (≈ 16 to 40.9 µg/mL).
The same measure, in the same setting: next, `c1ccc(C(Nc2nc(N3CCCCC3)nc3ccccc23)c2ccccc2)cc1` [Compound 50, N-Benzhydryl-2-(piperidin-1-yl)quinazolin-4-amine]: 10 to 50 µM (≈ 3.95 to 19.7 µg/mL); `c1ccc(CNc2nc(N3CCNCC3)nc3ccccc23)cc1` [Compound 51, N-Benzyl-2-(piperazin-1-yl)quinazolin-4-amine]: 50 to 128 µM (≈ 16 to 40.9 µg/mL).
The same measure, in the same setting: next, `c1ccc(CNc2nc(N3CCCOCC3)nc3ccccc23)cc1` [Compound 52, N-Benzyl-2-(1,4-oxazepan-4-yl)quinazolin-4-amine]: 10 to 50 µM (≈ 3.34 to 16.7 µg/mL); `CC(C)(C)OC(=O)N1CCCN(c2nc(NCc3ccccc3)c3ccccc3n2)CC1` [Compound 55, tert-Butyl 4-(4-(benzylamino)quinazolin-2-yl)-1,4-diazepane-1-carboxylate]: 10 to 50 µM (≈ 4.34 to 21.7 µg/mL); `CC(C)C(=O)N1CCN(c2nc(NCc3ccccc3)c3ccccc3n2)CC1` [Compound 56, 1-(4-(4-(Benzylamino)quinazolin-2-yl)piperazin-1-yl)-2-methylpropan-1-one]: 50 to 128 µM (≈ 19.5 to 49.9 µg/mL).
The same measure, in the same setting: next, `CC(C)(C)C(=O)N1CCN(c2nc(NCc3ccccc3)c3ccccc3n2)CC1` [Compound 57, 1-(4-(4-(Benzylamino)quinazolin-2-yl)piperazin-1-yl)-2,2-dimethylpropan-1-one]: 10 to 50 µM (≈ 4.04 to 20.2 µg/mL).
